{"source": "patent US7402548B2", "about": "“Benzoxazole compounds, process for producing the same and herbicides” (Kyoyu Agri Co., Ltd., priority 2000, dated 2008)", "key": {"annual bluegrass [1]": {"test_system": "annual bluegrass", "assay": "Soil treatment test for upland field", "format": "in vivo, Poa annua", "parameters": "key: 0 = normal development, 5 = all killed", "conditions": "500 g/ha, 3 weeks, glass house 25° C.", "procedure,_shortened": "(§1)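 Using a pre-emergence soil application at 500 g/ha, treated pots were held 3 weeks in a glass house averaging 25° C. Injury was graded on a 0–5 scale against non-treated pots; \"-\" marks entries not investigated.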"}, "barnyardgrjass": {"test_system": "barnyardgrjass", "assay": "Foliar spread test for upland field", "format": "in vivo, Eschinochloa crusgalli", "parameters": "key: 0 = normal development, 5 = all killed (6 ranks vs. untreated)", "conditions": "foliar spray, 500 ppm, 3 weeks, glass house 25° C.", "procedure,_shortened": "(§2)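 Plants grown about 2 weeks at 25 °C in volcanic ash soil were sprayed with wettable powder diluted to 500 ppm in water with 0.5% surfactant. After 3 weeks at 25 °C, damage was scored 0 (normal) to 5 (all killed) against untreated plants.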"}, "annual bluegrass [2]": {"test_system": "annual bluegrass", "assay": "Foliar spread test for upland field", "format": "in vivo, Poa annua", "parameters": "key: 0 = normal development, 5 = all killed (6 ranks vs. untreated)", "conditions": "foliar spray, 500 ppm, 3 weeks, glass house 25° C.", "procedure,_shortened": "as §2"}, "morning glory [3]": {"test_system": "morning glory", "assay": "Soil treatment test for upland field", "format": "in vivo, Ipomoea spps.", "parameters": "key: 0 = normal development, 5 = all killed", "conditions": "500 g/ha, 3 weeks, glass house 25° C.", "procedure,_shortened": "as §1"}, "livid amaranth [4]": {"test_system": "livid amaranth", "assay": "Foliar spread test for upland field", "format": "in vivo, Amaranthus lividus", "parameters": "key: 0 = normal development, 5 = all killed (6 ranks vs. untreated)", "conditions": "foliar spray, 500 ppm, 3 weeks, glass house 25° C.", "procedure,_shortened": "as §2"}, "velvetleaf [5]": {"test_system": "velvetleaf", "assay": "Foliar spread test for upland field", "format": "in vivo, Abutilon theophrasti", "parameters": "key: 0 = normal development, 5 = all killed (6 ranks vs. untreated)", "conditions": "foliar spray, 500 ppm, 3 weeks, glass house 25° C.", "procedure,_shortened": "as §2"}, "livid amaranth [6]": {"test_system": "livid amaranth", "assay": "Soil treatment test for upland field", "format": "in vivo, Amaranthus lividus", "parameters": "key: 0 = normal development, 5 = all killed", "conditions": "500 g/ha, 3 weeks, glass house 25° C.", "procedure,_shortened": "as §1"}, "Large crabgrass [7]": {"test_system": "Large crabgrass", "assay": "Foliar spread test for upland field", "format": "in vivo, Digitaria adscendens", "parameters": "key: 0 = normal development, 5 = all killed (6 ranks vs. untreated)", "conditions": "foliar spray, 500 ppm, 3 weeks, glass house 25° C.", "procedure,_shortened": "as §2"}, "common lambsquarters [8]": {"test_system": "common lambsquarters", "assay": "Soil treatment test for upland field", "format": "in vivo, Chenopodium album", "parameters": "key: 0 = normal development, 5 = all killed", "conditions": "500 g/ha, 3 weeks, glass house 25° C.", "procedure,_shortened": "as §1"}, "barnyard grass": {"test_system": "barnyard grass", "assay": "Soil treatment test for upland field", "format": "in vivo, Eschinochloa crusgalli", "parameters": "key: 0 = normal development, 5 = all killed", "conditions": "500 g/ha, 3 weeks, glass house 25° C.", "procedure,_shortened": "as §1"}, "green foxtail [9]": {"test_system": "green foxtail", "assay": "Foliar spread test for upland field", "format": "in vivo, Setaria viridis", "parameters": "key: 0 = normal development, 5 = all killed (6 ranks vs. untreated)", "conditions": "foliar spray, 500 ppm, 3 weeks, glass house 25° C.", "procedure,_shortened": "as §2"}, "blackgrass [10]": {"test_system": "blackgrass", "assay": "Foliar spread test for upland field", "format": "in vivo, Alopecurus aegualis", "parameters": "key: 0 = normal development, 5 = all killed (6 ranks vs. untreated)", "conditions": "foliar spray, 500 ppm, 3 weeks, glass house 25° C.", "procedure,_shortened": "as §2"}, "Large crabgrass [11]": {"test_system": "Large crabgrass", "assay": "Soil treatment test for upland field", "format": "in vivo, Digitaria adscendens", "parameters": "key: 0 = normal development, 5 = all killed", "conditions": "500 g/ha, 3 weeks, glass house 25° C.", "procedure,_shortened": "as §1"}, "solgum [12]": {"test_system": "solgum", "assay": "Soil treatment test for upland field", "format": "in vivo", "parameters": "key: 0 = normal development, 5 = all killed", "conditions": "500 g/ha, 3 weeks, glass house 25° C.", "procedure,_shortened": "as §1"}, "sugar beat [13]": {"test_system": "sugar beat", "assay": "Soil treatment test for upland field", "format": "in vivo", "parameters": "key: 0 = normal development, 5 = all killed", "conditions": "500 g/ha, 3 weeks, glass house 25° C.", "procedure,_shortened": "as §1"}, "wheat [14]": {"test_system": "wheat", "assay": "Soil treatment test for upland field", "format": "in vivo", "parameters": "key: 0 = normal development, 5 = all killed", "conditions": "500 g/ha, 3 weeks, glass house 25° C.", "procedure,_shortened": "as §1"}, "corn [15]": {"test_system": "corn", "assay": "Soil treatment test for upland field", "format": "in vivo", "parameters": "key: 0 = normal development, 5 = all killed", "conditions": "500 g/ha, 3 weeks, glass house 25° C.", "procedure,_shortened": "as §1"}, "solgum [16]": {"test_system": "solgum", "assay": "Foliar spread test for upland field", "format": "in vivo", "parameters": "key: 0 = normal development, 5 = all killed (6 ranks vs. untreated)", "conditions": "foliar spray, 500 ppm, 3 weeks, glass house 25° C.", "procedure,_shortened": "as §2"}, "soybean": {"test_system": "soybean", "assay": "Foliar spread test for upland field", "format": "in vivo", "parameters": "key: 0 = normal development, 5 = all killed (6 ranks vs. untreated)", "conditions": "foliar spray, 500 ppm, 3 weeks, glass house 25° C.", "procedure,_shortened": "as §2"}, "sugar beat [17]": {"test_system": "sugar beat", "assay": "Foliar spread test for upland field", "format": "in vivo", "parameters": "key: 0 = normal development, 5 = all killed (6 ranks vs. untreated)", "conditions": "foliar spray, 500 ppm, 3 weeks, glass house 25° C.", "procedure,_shortened": "as §2"}, "wheat [18]": {"test_system": "wheat", "assay": "Foliar spread test for upland field", "format": "in vivo", "parameters": "key: 0 = normal development, 5 = all killed (6 ranks vs. untreated)", "conditions": "foliar spray, 500 ppm, 3 weeks, glass house 25° C.", "procedure,_shortened": "as §2"}, "cotton [19]": {"test_system": "cotton", "assay": "Foliar spread test for upland field", "format": "in vivo", "parameters": "key: 0 = normal development, 5 = all killed (6 ranks vs. untreated)", "conditions": "foliar spray, 500 ppm, 3 weeks, glass house 25° C.", "procedure,_shortened": "as §2"}, "corn [20]": {"test_system": "corn", "assay": "Foliar spread test for upland field", "format": "in vivo", "parameters": "key: 0 = normal development, 5 = all killed (6 ranks vs. untreated)", "conditions": "foliar spray, 500 ppm, 3 weeks, glass house 25° C.", "procedure,_shortened": "as §2"}, "blackgrass [21]": {"test_system": "blackgrass", "assay": "Soil treatment test for upland field", "format": "in vivo, Alopecurus aegualis", "parameters": "key: 0 = normal development, 5 = all killed", "conditions": "500 g/ha, 3 weeks, glass house 25° C.", "procedure,_shortened": "as §1"}, "common lambsquarters [22]": {"test_system": "common lambsquarters", "assay": "Foliar spread test for upland field", "format": "in vivo, Chenopodium album", "parameters": "key: 0 = normal development, 5 = all killed (6 ranks vs. untreated)", "conditions": "foliar spray, 500 ppm, 3 weeks, glass house 25° C.", "procedure,_shortened": "as §2"}, "velvetleaf [23]": {"test_system": "velvetleaf", "assay": "Soil treatment test for upland field", "format": "in vivo, Abutilon theophrasti", "parameters": "key: 0 = normal development, 5 = all killed", "conditions": "500 g/ha, 3 weeks, glass house 25° C.", "procedure,_shortened": "as §1"}, "cotton [24]": {"test_system": "cotton", "assay": "Soil treatment test for upland field", "format": "in vivo", "conditions": "500 g/ha, 3 weeks, glass house 25° C.", "protocol": "The herbicidal effects are evaluated according to the following 6 ranks as compared with non-treated district. (0: normal development, 1: Less damaged, 2: Slightly damaged, 3: Moderately damaged, 4: Severely damaged, 5: All killed). Incidentally, “-” in the column means not investigated.\nWagner pots, each having an area of 1/5000 are, were packed with Ube soil (alluvial soil), and then each seed of corn, soybean, cotton, wheat, solgum, sugar beat, Large crabgrass, barnyard grass, green foxtail, blackgrass, annual bluegrass, common lambsquarters, livid amaranth, velvetleaf, morning glory, common Cocklebur (Xanthium strumarium) and sicklepod (Cassia obtusifolia) were planted and covered with soil.\nEach wettable powder of the desired compounds (I) shown in Tables 1 to 21, 24, 25, 28 and 29 prepared in accordance with Example 2 was diluted with water containing a surfactant (0.05%) and uniformly sprayed on the surface of each soil so that an effective concentration of the compound (I) in each herbicide became 500 g/ha.\nThese plants were controlled in a glass house at an average temperature of 25° C. for 3 weeks, and then herbicidal effects thereof were investigated.\nThe herbicidal effects were evaluated according to the evaluation method described in the above (1)."}, "morning glory [25]": {"test_system": "morning glory", "assay": "Foliar spread test for upland field", "format": "in vivo, Ipomoea spps.", "parameters": "key: 0 = normal development, 5 = all killed (6 ranks vs. untreated)", "conditions": "foliar spray, 500 ppm, 3 weeks, glass house 25° C.", "procedure,_shortened": "as §2"}, "green foxtail [26]": {"test_system": "green foxtail", "assay": "Soil treatment test for upland field", "format": "in vivo, Setaria viridis", "parameters": "key: 0 = normal development, 5 = all killed", "conditions": "500 g/ha, 3 weeks, glass house 25° C.", "procedure,_shortened": "as §1"}}, "data": [{"smiles": "CCC(O)(Cc1ccc(F)c(C(F)(F)F)c1)c1nc2cc(Cl)ccc2o1", "note": "(stereo not drawn) [I-d-11, 1-(5-chlorobenzoxazol-2-yl)-1-(4-fluoro-3-trifluoromethylbenzyl)propanol]", "values": [{"measurement": "melting point", "value": "90 to 93", "unit": "°C"}]}, {"smiles": "CCC(F)(Cc1ccc(F)c(C(F)(F)F)c1)c1nc2cc(Cl)ccc2o1", "note": "(stereo not drawn) [I-d-13, 1-(5-chlorobenzoxazol-2-yl)-1-(4-fluoro-3-trifluoromethylbenzyl)propyl fluoride]", "values": [{"measurement": "Effects Annual bluegrass", "setting": "annual bluegrass [1]", "value": 5}, {"measurement": "Effects Barnyardgrass", "setting": "barnyardgrjass", "value": 1}, {"measurement": "Effects Annual bluegrass", "setting": "annual bluegrass [2]", "value": 1}, {"measurement": "Effects Morning glory", "setting": "morning glory [3]", "value": 1}, {"measurement": "Effects Livid amaranth", "setting": "livid amaranth [4]", "value": 5}, {"measurement": "Effects Velvetleaf", "setting": "velvetleaf [5]", "value": 4}, {"measurement": "Effects Livid amaranth", "setting": "livid amaranth [6]", "value": 5}, {"measurement": "Effects Large crabgrass", "setting": "Large crabgrass [7]", "value": 2}, {"measurement": "Effects Common lambsquarters", "setting": "common lambsquarters [8]", "value": 5}, {"measurement": "Effects Barnyardgrass", "setting": "barnyard grass", "value": 2}, {"measurement": "Effects Green foxtail", "setting": "green foxtail [9]", "value": 2}, {"measurement": "Effects Blackgrass", "setting": "blackgrass [10]", "value": 1}, {"measurement": "Effects Large crabgrass", "setting": "Large crabgrass [11]", "value": 5}, {"measurement": "Effects Solgum", "setting": "solgum [12]", "value": 0}, {"measurement": "Effects Sugar beat", "setting": "sugar beat [13]", "value": 5}, {"measurement": "Effects Wheat", "setting": "wheat [14]", "value": 0}, {"measurement": "Effects Corn", "setting": "corn [15]", "value": 0}, {"measurement": "Effects Solgum", "setting": "solgum [16]", "value": 1}, {"measurement": "Effects Soybean", "setting": "soybean", "value": 5}, {"measurement": "Effects Sugar beat", "setting": "sugar beat [17]", "value": 5}, {"measurement": "Effects Wheat", "setting": "wheat [18]", "value": 1}, {"measurement": "Effects Sotton", "setting": "cotton [19]", "value": 5}, {"measurement": "Effects Corn", "setting": "corn [20]", "value": 2}, {"measurement": "Effects Blackgrass", "setting": "blackgrass [21]", "value": 4}, {"measurement": "Effects Common lambsquarters", "setting": "common lambsquarters [22]", "value": 5}, {"measurement": "Effects Velvetleaf", "setting": "velvetleaf [23]", "value": 5}, {"measurement": "Effects Sotton", "setting": "cotton [24]", "value": 0}, {"measurement": "Effects Morning glory", "setting": "morning glory [25]", "value": 5}, {"measurement": "Effects Green foxtail", "setting": "green foxtail [26]", "value": 5}]}]}
